Source: publication PMC9959553, “Promising Antifungal Molecules against Mucormycosis Agents Identified from Pandemic Response Box®: In Vitro and In Silico Analyses” (Journal of Fungi, 2023)

Tested on: R. oryzae UCP1295
Test: Screening of the Pandemic Response Box library at 5 µM
Type: cell-based, Rhizopus oryzae
Conditions: 48 h, Table S1, mean of the four values
Description: Rhizopus oryzae UCP is the most prevalent Mucorales species in human infections and was used as a reference strain to screen the Pandemic Response Box® library. Screening was performed according to Rollin-Pinheiro and colleagues. Each compound was diluted in RPMI 1640 medium (Sigma Chemical Co., St. Louis, MO, USA), supplemented with 2% glucose and buffered with 3-(N-morpholino) propanesulfonic acid (MOPS) (Sigma Chemical Co., St. Louis, MO, USA) (0.165 mol/L, pH 7.2, from here on referred to as ‘supplemented RPMI’) to reach 5 μM in 96-well microtiter plates. Posaconazole (5 μM) and supplemented RPMI containing 1% DMSO were used as controls (both from Sigma Chemical Co., St. Louis, MO, USA). Conidia (2 × 10^5/mL) were added and incubated for 48 h at 37 °C in a 5% CO2 atmosphere. […] An inhibition of at least 60% was defined as the cut-off to select the promising drugs with antifungal activity against the Rhizopus species.

Compared with `CCN(CC)CCCC(C)Nc1ccnc2cc(Cl)ccc12` (stereo not drawn) [MMV000008], `CCN(CC)CCn1c(=N)n(CC(O)COc2ccc(Cl)cc2Cl)c2ccccc21` (stereo not drawn) [MMV000725] is lower in “% of growth inhibition, Mean” value: -3.5% for the first, -27.5% for the second.

Compared with `COc1cc(Cc2cnc(N)nc2N)cc(OC)c1OC` [MMV000028], `COc1ccc2c(c1OC)C(=O)OC2C1c2c(cc3c(c2OC)OCO3)CCN1C` (stereo not drawn) [MMV002780] is lower in “% of growth inhibition, Mean” value: -4.5% for the first, -7.9% for the second.

Compared with `COc1cc(C)c2c(Oc3cccc(C(F)(F)F)c3)c(OC)cc(NC(C)CCCN)c2n1.O=C(O)CCC(=O)O` (stereo not drawn) [MMV000043], `O=C(O)CSc1cc(NS(=O)(=O)c2cccc3cccnc23)c2ccccc2c1O` [MMV218827] is higher in “% of growth inhibition, Mean” value: -36.7% for the first, -3.2% for the second.

Going from `CCC[C@@H]1C[C@@H](C(=O)N[C@@H]([C@H]2O[C@H](SC)[C@H](O)[C@@H](O)[C@H]2O)[C@H](C)Cl)N(C)C1.Cl` [MMV000051] to `NC[C@H]1O[C@H](O[C@H]2[C@H](O)[C@@H](O[C@H]3O[C@H](CO)[C@@H](O)[C@H](N)[C@H]3O)[C@H](N)C[C@@H]2N)[C@H](N)C[C@@H]1O` [MMV002459], the “% of growth inhibition, Mean” value rises from -29.6% to -14.1%.

First: CONC(=N)c1ccc(-c2ccc(-c3ccc(C(=N)NOC)cc3)o2)cc1 [MMV000059]
Second: Cc1onc(-c2ccccc2)c1-c1ccc(S(N)(=O)=O)cc1 [MMV002260]
The “% of growth inhibition, Mean” value of the first is lower: -38.5% for the first, -15.5% for the second.

First: O=C(c1ccccc1)N1CCN(c2ccccc2NC(=O)C(Cl)(Cl)Cl)CC1 [MMV001014]
Second: C[N+]1(C)CCCC(OC(=O)C(O)(c2ccccc2)c2ccccc2)C1 (stereo not drawn) [MMV002676]
The “% of growth inhibition, Mean” value of the first is higher: -10.6% for the first, -16.3% for the second.

Going from `Cc1c(OCC(F)(F)F)ccnc1C[S+]([O-])c1nc2ccccc2[nH]1` (stereo not drawn) [MMV001438] to `COC(=O)Nc1nc2ccc([S+]([O-])c3ccccc3)cc2[nH]1` (stereo not drawn) [MMV002565], the “% of growth inhibition, Mean” value falls from -13.2% to -39.5%.

First: CCCCc1ccc(C(=O)O)nc1 [MMV001726]
Second: CCOc1ccc(C(=O)NCCc2ccccc2)cc1 [MMV124656]
The “% of growth inhibition, Mean” value of the first is higher: -15.9% for the first, -37.8% for the second.

Compared with `Nc1nc(O)c2ncn(COC(CO)CO)c2n1` [MMV001761], `Nc1nc2c(ncn2COCCO)c(=O)[nH]1` [MMV001961] is higher in “% of growth inhibition, Mean” value: -10.5% for the first, -10.2% for the second.

Compared with `CC1=C(/C=C/C(C)=C/C=C/C(C)=C/C(=O)Nc2ccc(O)cc2)C(C)(C)CCC1` [MMV001793], `Cc1oncc1C(=O)Nc1ccc(C(F)(F)F)cc1` [MMV003291] is higher in “% of growth inhibition, Mean” value: -8.1% for the first, 4.9% for the second.

Compared with `Clc1ccc(Cn2c(CN3CCCC3)nc3ccccc32)cc1` [MMV002015], `Nc1c(C(=O)NCc2ccco2)c2nc3ccccc3nc2n1CCN1CCCCC1` [MMV099714] is higher in “% of growth inhibition, Mean” value: -4.7% for the first, -2.7% for the second.

Compared with `NNC(=O)c1ccncc1` [MMV002169], `NC(=O)c1cnccn1` [MMV003249] is higher in “% of growth inhibition, Mean” value: -5.4% for the first, -5.2% for the second.

Compared with `O=C(O)CCNC(=O)c1ccccc1` [MMV002224], `O=C(O)c1cc(-c2ccccc2)nc2ccccc12` [MMV018362] is lower in “% of growth inhibition, Mean” value: -6.2% for the first, -11.4% for the second.

First: Cc1ncc([N+](=O)[O-])n1CC(C)O (stereo not drawn) [MMV002287]
Second: CC[C@@H]1C(=O)OC[C@@H]1Cc1cncn1C.Cl [MMV002516]
The “% of growth inhibition, Mean” value of the first is lower: -34.1% for the first, -16.1% for the second.

First: OC(Cn1cncn1)(Cn1cncn1)c1ccc(F)cc1F [MMV002337]
Second: CC(C)Nc1ncnc2c1cnn2-c1ccc(Cl)cc1 [MMV108465]
The “% of growth inhibition, Mean” value of the first is lower: -36.5% for the first, -32.3% for the second.

Compared with `CCn1cc(C(=O)O)c(=O)c2cc(F)c(N3CCNC(C)C3)c(F)c21.Cl` (stereo not drawn) [MMV002350], `CC1CN(c2ncnc3c2c(-c2ccccc2)cn3-c2ccc(F)cc2)CC(C)O1` (stereo not drawn) [MMV093250] is lower in “% of growth inhibition, Mean” value: -4.3% for the first, -16.0% for the second.

First: C[C@@H]1O[C@@H]1P(=O)(O)O [MMV002354]
Second: Cc1onc(-c2ccccc2Cl)c1C(=O)N[C@@H]1C(=O)N2[C@@H]1SC(C)(C)[C@@H]2C(=O)O [MMV002740]
The “% of growth inhibition, Mean” value of the first is higher: -22.5% for the first, -27.0% for the second.

First: CSc1ccc2c(c1)C(N1CCN(C)CC1)Cc1ccccc1S2 (stereo not drawn) [MMV002505]
Second: Cc1nc(Nc2ccc(F)cc2)nc(N2CCc3ccccc3C2C)c1C (stereo not drawn) [MMV030787]
The “% of growth inhibition, Mean” value of the first is higher: 8.0% for the first, -5.0% for the second.

Going from `CO/N=C(\C(=O)N[C@@H]1C(=O)N2C(C(=O)OCOC(=O)C(C)(C)C)=C(/C=C\c3scnc3C)CS[C@H]12)c1csc(N)n1` [MMV002560] to `O=C(CC1Sc2ncnn2C1=O)Nc1ccc(Br)cc1` (stereo not drawn) [MMV214956], the “% of growth inhibition, Mean” value falls from -6.4% to -17.9%.

First: O=C1CCC(N2C(=O)c3ccccc3C2=O)C(=O)N1 (stereo not drawn) [MMV002612]
Second: COC(=O)Nc1nc2cc(Sc3ccccc3)ccc2[nH]1 [MMV003143]
The “% of growth inhibition, Mean” value of the first is lower: -21.8% for the first, -14.1% for the second.

Compared with `NCc1ccc(S(N)(=O)=O)cc1` [MMV002665], `COc1cc(NS(=O)(=O)c2ccc(C)cc2)c2ncccc2c1` [MMV098836] is higher in “% of growth inhibition, Mean” value: -2.2% for the first, 48.1% for the second.

Compared with `Cc1cc(C2CCCCC2)n(O)c(=O)c1` [MMV002731], `COc1ccc(C2CNC(=O)C2)cc1OC1CCCC1` (stereo not drawn) [MMV003738] is higher in “% of growth inhibition, Mean” value: -13.0% for the first, -1.4% for the second.

Going from `C[C@H]1CC[C@]2(NC1)O[C@H]1C[C@H]3[C@@H]4CC[C@H]5C[C@@H](O)CC[C@]5(C)[C@H]4CC[C@]3(C)[C@H]1[C@@H]2C.Cl` [MMV003069] to `CC#C[C@]1(O)CC[C@H]2[C@@H]3CCC4=CC(=O)CCC4=C3[C@@H](c3ccc(N(C)C)cc3)C[C@@]21C` [MMV003297], the “% of growth inhibition, Mean” value rises from -12.1% to -3.7%.

First: CC[C@H]1OC(=O)[C@H](C)[C@@H](O[C@H]2C[C@@](C)(OC)[C@@H](O)[C@H](C)O2)[C@H](C)[C@@H](O[C@@H]2O[C@H](C)C[C@H](N(C)C)[C@H]2O)[C@](C)(O)C[C@@H](C)C(=O)[C@H](C)[C@@H](O)[C@]1(C)O [MMV003137]
Second: COc1cc2c(O)c3c(c(-c4ccc5c(c4)OCO5)c2cc1OC)C(=O)OC3 [MMV102270]
The “% of growth inhibition, Mean” value of the first is higher: -11.8% for the first, -33.2% for the second.

First: CC[C@H](CO)Nc1nc(NCc2ccccc2)c2ncn(C(C)C)c2n1 [MMV003820]
Second: Cc1[nH]c2ccccc2c1CCNCc1ccc(/C=C/C(=O)NO)cc1 [MMV010036]
The “% of growth inhibition, Mean” value of the first is lower: -13.4% for the first, 1.8% for the second.

Going from `Nc1nc(=O)[nH]cc1F` [MMV004508] to `Nc1nnc(-c2ccc(Cl)cc2)s1` [MMV046261], the “% of growth inhibition, Mean” value rises from -32.5% to -8.7%.

Going from `Cc1ccc(NC(=O)c2ccc(CN3CCN(C)CC3)cc2)cc1Nc1nccc(-c2cccnc2)n1` [MMV009948] to `CN1CCN(c2ccc3[nH]c(-c4ccc5[nH]c(-c6ccc(O)cc6)nc5c4)nc3c2)CC1` [MMV020752], the “% of growth inhibition, Mean” value falls from -3.0% to -8.9%.

Compared with `COc1ccc2nc(-c3ccccc3)cc(O)c2c1` [MMV011565], `Clc1cccc(-c2nnc(-c3ccccc3)o2)c1` [MMV141011] is higher in “% of growth inhibition, Mean” value: -42.1% for the first, -16.6% for the second.

First: Nc1nc(N)c2c(Sc3ccccc3)cccc2n1 [MMV021759]
Second: O=C(Nc1nnc(-c2ccc(Cl)cc2)o1)c1nc2ccccc2s1 [MMV102833]
The “% of growth inhibition, Mean” value of the first is lower: -3.3% for the first, 1.7% for the second.

First: NC(=O)c1c(N)sc2c1CCCCC2 [MMV056052]
Second: NC1C2CC3CC(C2)CC1C3 (stereo not drawn) [MMV180402]
The “% of growth inhibition, Mean” value of the first is lower: -8.7% for the first, 3.0% for the second.
